According to US20200396997A1, “A STABLE AGROCHEMICAL COMPOSITION” (priority 2018, published 2020):

Columns and labels:
Type in all cases: physicochemical
[1] = Comparative study of compositions with end-capped vs non-end capped EO/PO block polymer (7 and 14 days AHS)
Protocol: Comparative Study of the Compositions with EO/PO Block Copolymer End-Capped with Methyl Group and Non-End Capped EO/PO Block Polymer
The composition described in Example-1 (having EO/PO block copolymer end-capped with methyl group) prepared according to the process disclosed in the present invention was tested against the composition described in Example-3 (having non-alkyl end-capped EO/PO block copolymer). The objective of study was to determine the effect EO/PO block copolymer end-capped with alkyl group in preventing degradation of active ingredients and to impart overall stability to the composition.

[2] = Stability of active ingredients in real time study (19 months ambient); conditions: composition of Example-2
Text: Stability of Active Ingredients Observed in Real Time Study
The composition prepared in Example-2 according to the process disclosed in the present invention is kept for real time study to observe degradation pattern of active ingredients. The composition was kept for 19 months in ambient conditions. Acetamiprid and Acephate found to be very stable with 3.5% and 2.31% degradation respectively. This resulted into an overall stable agrochemical composition.

[3] = Stability study of active ingredients in various storage conditions (unpacked / water soluble pouch); conditions: composition of Example-1; for % Degradation: 14 days AHS at 54° C. vs ambient; for 14 D AHS / AMB: content of active; for 14 D AHS: 14 days AHS at 54° C.; for AMB: ambient
Protocol: Stability Study of Active Ingredients in Various Storage Conditions
The composition described in Example-1 prepared according to the process disclosed in the present invention was tested to determine the stability of active ingredients when subjected to various storage conditions. Degradation of active ingredients was calculated at ambient conditions and in 14 days AHS at 54° C. for the composition kept as unpacked and as packed in water soluble pouch. Acetamiprid and Acephate both found to be stable in unpacked as well as when packed in the water soluble pouch.

[4] = Study of chloronicotinyl compositions with and without EO/PO block copolymer end-capped with methyl group (7 and 14 days AHS)
Protocol: Study of Chloronicotinyl Compositions Having EO/PO Block Copolymer End-Capped with Methyl Group and without Having EO/PO Block Polymer End-Capped with Methyl Group
The composition described in Example-4 (having EO/PO block copolymer end-capped with methyl group) prepared according to the process disclosed in the present invention was tested against the composition described in Example-7 (having no EO/PO block copolymer). The objective of study was to determine the effect of EO/PO block copolymer end-capped with alkyl group on chloronicotinyl compounds in preventing degradation of the compositions as well as the overall stability to the compositions.

[5] = 19 months in ambient conditions

Compound	Degradation observed ([1]; 7 days AHS, active in composition comprising EO/PO block copolymer end-capped with methyl group (Example-1)) [%]	Degradation observed ([1]; 7 days AHS, active in composition comprising non end-capped EO/PO block copolymer (Example-3)) [%]	Degradation observed ([1]; 14 days AHS, active in composition comprising EO/PO block copolymer end-capped with methyl group (Example-1)) [%]	Degradation observed ([1]; 14 days AHS, active in composition comprising non end-capped EO/PO block copolymer (Example-3)) [%]	degradation ([2]; 19 Month Real Time)	degradation [2, 5] [%]	stability of active (in words) [2, 5]	19 Month Real Time ([2]; content of active, 19 months in ambient conditions)	Ambient ([2]; content of active, start)	% Degradation ([3]; Packed in Water Soluble Pouch) [%]	% Degradation ([3]; Without Packing) [%]	stability of active (in words) ([3]; unpacked as well as packed in the water soluble pouch)	14 D AHS ([3]; Packed in Water Soluble Pouch)	14 D AHS ([3]; Without Packing)	AMB ([3]; Packed in Water Soluble Pouch)	AMB ([3]; Without Packing)	Degradation observed ([4]; 7 days AHS, active in composition comprising EO/PO block copolymer end-capped with methyl group (Example-4)) [%]	Degradation observed ([4]; 7 days AHS, active in composition prepared without using end-capped EO/PO block copolymer (Example-7)) [%]	Degradation observed ([4]; 14 days AHS, active in composition comprising EO/PO block copolymer end-capped with methyl group (Example-4)) [%]	Degradation observed ([4]; 14 days AHS, active in composition prepared without using end-capped EO/PO block copolymer (Example-7)) [%]
COP(=O)(NC(C)=O)SC (centres unmarked) [Acephate, N-(Methoxy-methylsulfanylphosphoryl) acetamide]	0.64	1.5	1.02	1.92	3.50	2.31	very stable	85.03	88.11	1.29	0.75	stable	87.13	87.81	88.59	88.59				
N#C/N=C1\SCCN1Cc1ccc(Cl)nc1 [Thiacloprid]																	0.58	5.1	0.93	7.91
